Measured values as given in patent US9415055B2, “Cyclic amines” (H. Lundbeck A/S, priority 2012, dated 2016).

molecular target: P2X7 receptor (Homo sapiens (Human), UniProt Q99572); assay: P2X7 FLIPR assay: antagonism of BzATP response in 293 HEK cells stably expressing P2X7 receptor; assay type: cell-based; conditions: FLIPR fluorescence (Fluo-4), agonist BzATP, 293 HEK cells stably transfected with P2X7 receptor
How it was run: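 Antagonist IC50 derived from FLIPR Tetra Fluo-4 calcium signal evoked by BzATP. Compound pre-incubation was 30 min at room temperature on P2X7-expressing HEK293 cells, seeded 24 h before in low-serum medium and dye-loaded 30 min at 37 °C then 30 min at RT.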

Chain of P2X7 receptor (Q99572 whole entry): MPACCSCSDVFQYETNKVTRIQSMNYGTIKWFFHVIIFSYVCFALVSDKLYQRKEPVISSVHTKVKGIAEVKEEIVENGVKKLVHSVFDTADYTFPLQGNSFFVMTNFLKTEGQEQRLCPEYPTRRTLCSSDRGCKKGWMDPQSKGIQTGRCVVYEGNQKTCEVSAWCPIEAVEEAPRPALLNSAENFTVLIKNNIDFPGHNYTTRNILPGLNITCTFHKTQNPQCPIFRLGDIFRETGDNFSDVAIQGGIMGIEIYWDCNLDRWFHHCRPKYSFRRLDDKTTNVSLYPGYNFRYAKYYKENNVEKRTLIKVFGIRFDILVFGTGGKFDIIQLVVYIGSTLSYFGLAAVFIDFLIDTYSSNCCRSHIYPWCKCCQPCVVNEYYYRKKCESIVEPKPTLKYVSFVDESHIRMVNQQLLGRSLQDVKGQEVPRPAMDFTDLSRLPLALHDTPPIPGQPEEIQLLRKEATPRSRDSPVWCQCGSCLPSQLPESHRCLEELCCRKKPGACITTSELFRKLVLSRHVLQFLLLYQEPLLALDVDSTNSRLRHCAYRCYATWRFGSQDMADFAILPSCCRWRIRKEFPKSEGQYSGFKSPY

SMILES | IC50 [nM]
COc1ccc(C(=O)NCC(c2cnc(C(F)(F)F)nc2)N2CCC(F)(F)CC2)c(Cl)c1OC (single isomer, unassigned; (-)) [(−)2-chloro-N-[2-(4,4-difluoro-1-piperidyl)-2-[2-(trifluorom] [(−)2-chloro-3,4-dimethoxy-N-(2-(4,4-difluoropiperidin-1-yl)-2-(2-(trifluoromethyl)pyrimidin-5-yl)ethyl)benzamide] | 7.8
O=C(NCC(c1cnc(C(F)(F)F)nc1)N1CCC(F)(F)CC1)c1c(F)cc(F)cc1Cl (single isomer, unassigned; (-)) [(−)2-chloro-N-[2-(4,4-difluoro-1-piperidyl)-2-[2-(trifluorom] [(−)2-chloro-4,6-difluoro-N-(2-(4,4-difluoropiperidin-1-yl)-2-(2-(trifluoromethyl)pyrimidin-5-yl)ethyl)benzamide] | 31
COc1ccc(C(=O)NCC(c2cnc(C(F)(F)F)nc2)N2CCC(F)(F)CC2)c(Cl)c1 (single isomer, unassigned; (-)) [(−)2-chloro-N-[2-(4,4-difluoro-1-piperidyl)-2-[2-(trifluorom] [(−)2-chloro-4-methoxy-N-(2-(4,4-difluoropiperidin-1-yl)-2-(2-(trifluoromethyl)pyrimidin-5-yl)ethyl)benzamide] | 2.2
O=C(NCC(c1cnc(C(F)(F)F)nc1)N1CCC(F)(F)CC1)c1c(F)cccc1Cl (single isomer, unassigned; (-)) [(−)2-chloro-N-[2-(4,4-difluoro-1-piperidyl)-2-[2-(trifluorom] [(−)2-chloro-6-fluoro-N-(2-(4,4-difluoropiperidin-1-yl)-2-(trifluoromethyl)pyrimidin-5-yl)ethyl)benzamide] | 8.2
COc1cccc(C(=O)NCC(c2cnc(C(F)(F)F)nc2)N2CCC(F)(F)CC2)c1Cl (single isomer, unassigned; (-)) [(−)2-chloro-N-[2-(4,4-difluoro-1-piperidyl)-2-[2-(trifluorom] [(−)2-chloro-N-(2-(4,4-difluoropiperidin-1-yl)-2-(2-(trifluoromethyl)pyrimidin-5-yl)ethyl)-3-methoxybenzamide] | 4.8
COc1ccc(F)c(C(=O)NCC(c2cnc(C(F)(F)F)nc2)N2CCC(F)(F)CC2)c1Cl (single isomer, unassigned; (-)) [(−)2-chloro-N-[2-(4,4-difluoro-1-piperidyl)-2-[2-(trifluorom] [(−)2-chloro-N-(2-(4,4-difluoropiperidin-1-yl)-2-(2-(trifluoromethyl)pyrimidin-5-yl)ethyl)-6-fluoro-3-methoxybenzamide] | 31
O=C(NCC(c1ccc(C(F)(F)F)nc1)N1CCC(F)(F)CC1)c1c(F)cccc1Cl (single isomer, unassigned; (-)) [(−)2-chloro-N-[2-(4,4-difluoro-1-piperidyl)-2-[6-(trifluorom] [(−)2-chloro-6-fluoro-N-(2-(4,4-difluoropiperidin-1-yl)-2-(trifluoromethyl)pyridin-5-yl)ethyl)benzamide] | 3
O=C(NCC(c1ccc(C(F)(F)F)nc1)N1CCC(F)(F)CC1)c1cccc(F)c1Cl (single isomer, unassigned; (-)) [(−)2-chloro-N-[2-(4,4-difluoro-1-piperidyl)-2-[6-(trifluorom] [(−)2-chloro-N-(2-(4,4-difluoropiperidin-1-yl)-2-(2-(trifluoromethyl)pyridin-5-yl)ethyl)-3-fluorobenzamide] | 5.7

Continued, values first:

IC50 [nM] | SMILES
36 | CCc1ncc(C(CNC(=O)c2c(F)cccc2Cl)N2CCC(F)(F)CC2)cn1 (single isomer, unassigned; (-)) [(−)2-chloro-N-[2-(4,4-difluoro-1-piperidyl)-2-(2-ethylpyrimi] [(−)2-chloro-6-fluoro-N-(2-(4,4-difluoropiperidin-1-yl)-2-(2-ethylpyrimidin-5-yl)ethyl)benzamide]
17 | CCc1ncc(C(CNC(=O)c2ccccc2Cl)N2CCC(F)(F)CC2)cn1 (single isomer, unassigned; (-)) [(−)2-chloro-N-[2-(4,4-difluoro-1-piperidyl)-2-(2-ethylpyrimi] [(−)2-chloro-N-(2-(4,4-difluoropiperidin-1-yl)-2-(2-ethylpyrimidin-5-yl)ethyl)benzamide]
19 | Cc1ncc(C(CNC(=O)c2cccc(F)c2Cl)N2CCC(F)(F)CC2)cn1 (single isomer, unassigned; (-)) [(−)2-chloro-N-[2-(4,4-difluoro-1-piperidyl)-2-(2-methylpyrim] [(−)2-chloro-3-fluoro-N-(2-(4,4-difluoropiperidin-1-yl)-2-(2-methylpyrimidin-5-yl)ethyl)benzamide]
11 | COc1cccc(C(=O)NCC(c2cnc(C)nc2)N2CCC(F)(F)CC2)c1Cl (single isomer, unassigned; (-)) [(−)2-chloro-N-[2-(4,4-difluoro-1-piperidyl)-2-(2-methylpyrim] [(−)2-chloro-3-methoxy-N-(2-(4,4-difluoropiperidin-1-yl)-2-(2-methylpyrimidin-5-yl)ethyl)benzamide]
32 | Cc1ncc(C(CNC(=O)c2c(F)cccc2Cl)N2CCC(F)(F)CC2)cn1 (single isomer, unassigned; (-)) [(−)2-chloro-N-[2-(4,4-difluoro-1-piperidyl)-2-(2-methylpyrim] [(−)2-chloro-6-fluoro-N-(2-(4,4-difluoropiperidin-1-yl)-2-(2-methylpyrimidin-5-yl)ethyl)benzamide]
40 | Cc1ncc(C(CNC(=O)c2cccc(OC(F)(F)F)c2Cl)N2CCC(F)(F)CC2)cn1 (single isomer, unassigned; (-)) [(−)2-chloro-N-[2-(4,4-difluoro-1-piperidyl)-2-(2-methylpyrim] [(−)2-chloro-N-(2-(4,4-difluoropiperidin-1-yl)-2-(2-methylpyrimidin-5-yl)ethyl)-3-(trifluoromethoxy)benzamide]
24 | Cc1ncc(C(CNC(=O)c2ccccc2Cl)N2CCC(F)(F)CC2)cn1 (single isomer, unassigned; (-)) [(−)2-chloro-N-[2-(4,4-difluoro-1-piperidyl)-2-(2-methylpyrim] [(−)2-chloro-N-[2-(4,4-difluoro-1-piperidyl)-2-(2-methylpyrimidin-5-yl)ethyl]benzamide]
21 | Cc1ccc(C(CNC(=O)c2cccc(F)c2Cl)N2CCC(F)(F)CC2)cn1 (single isomer, unassigned; (-)) [(−)2-chloro-N-[2-(4,4-difluoro-1-piperidyl)-2-(6-methyl-3-pr] [(−)2-chloro-3-fluoro-N-(2-(4,4-difluoropiperidin-1-yl)-2-(2-methylpyridin-5-yl)ethyl)benzamide]
22 | Cc1ccc(C(CNC(=O)c2c(F)cccc2Cl)N2CCC(F)(F)CC2)cn1 (single isomer, unassigned; (-)) [(−)2-chloro-N-[2-(4,4-difluoro-1-piperidyl)-2-(6-methyl-3-py] [(−)2-chloro-N-(2-(4,4-difluoropiperidin-1-yl)-2-(6-methylpyridin-3-yl)ethyl)-6-fluorobenzamide]
4.2 | O=C(NCC(c1cnc(C(F)(F)F)nc1)N1CCC(F)(F)CC1)c1cccc(F)c1Cl (single isomer, unassigned; (-)) [(−)2-chloro-N-[2-(4,4-difluoro-1-piperidyl)-2-[2-(trifluorom] [(−)2-chloro-N-(2-(4,4-difluoropiperidin-1-yl)-2-(2-(trifluoromethyl)pyrimidin-5-yl)ethyl)-3-fluorobenzamide]
